Each block holds one compound with its values, some of them ahead of it. Active and inactive are the calls of the source.
Legend:
[1] = biological target: T1, High affinity choline transporter 1 (Homo sapiens, UniProt Q9GZV3); test: CHT inhibitors, dose response, cell-based, 10-point CRC, membrane potential dye (AID 588401); assay type: functional;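 note: membrane potential dye fluorescence of choline-evoked depolarization via CHT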
T1 sequence (Q9GZV3 whole entry): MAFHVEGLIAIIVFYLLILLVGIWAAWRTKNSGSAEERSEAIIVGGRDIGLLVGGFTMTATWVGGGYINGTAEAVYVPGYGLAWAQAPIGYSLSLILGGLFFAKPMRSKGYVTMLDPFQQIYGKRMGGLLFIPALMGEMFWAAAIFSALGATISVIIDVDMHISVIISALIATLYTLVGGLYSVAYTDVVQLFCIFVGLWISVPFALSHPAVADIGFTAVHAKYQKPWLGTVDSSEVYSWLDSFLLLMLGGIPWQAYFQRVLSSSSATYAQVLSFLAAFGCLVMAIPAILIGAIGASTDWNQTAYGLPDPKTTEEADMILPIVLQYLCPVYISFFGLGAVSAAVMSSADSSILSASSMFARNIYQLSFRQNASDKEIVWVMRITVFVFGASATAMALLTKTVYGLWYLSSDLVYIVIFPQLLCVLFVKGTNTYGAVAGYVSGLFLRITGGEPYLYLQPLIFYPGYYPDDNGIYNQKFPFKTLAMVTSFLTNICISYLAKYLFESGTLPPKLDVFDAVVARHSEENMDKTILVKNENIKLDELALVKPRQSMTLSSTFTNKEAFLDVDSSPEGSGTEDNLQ

[2] = biological target: T1, High affinity choline transporter 1; test: CHT inhibitors, dose response, cell-based, 5-point CRC, membrane potential dye (AID 504840); assay type: functional
[3] = biological target: DNA repair and recombination protein RAD54-like (Homo sapiens, UniProt Q92698); test: inhibitors of human RAD54 branch migration, confirmation, biochemical, fluorescence, cherry-picked samples, dose series (AID 651657); assay type: functional
DNA repair and recombination protein RAD54-like, sequence (Q92698 whole entry): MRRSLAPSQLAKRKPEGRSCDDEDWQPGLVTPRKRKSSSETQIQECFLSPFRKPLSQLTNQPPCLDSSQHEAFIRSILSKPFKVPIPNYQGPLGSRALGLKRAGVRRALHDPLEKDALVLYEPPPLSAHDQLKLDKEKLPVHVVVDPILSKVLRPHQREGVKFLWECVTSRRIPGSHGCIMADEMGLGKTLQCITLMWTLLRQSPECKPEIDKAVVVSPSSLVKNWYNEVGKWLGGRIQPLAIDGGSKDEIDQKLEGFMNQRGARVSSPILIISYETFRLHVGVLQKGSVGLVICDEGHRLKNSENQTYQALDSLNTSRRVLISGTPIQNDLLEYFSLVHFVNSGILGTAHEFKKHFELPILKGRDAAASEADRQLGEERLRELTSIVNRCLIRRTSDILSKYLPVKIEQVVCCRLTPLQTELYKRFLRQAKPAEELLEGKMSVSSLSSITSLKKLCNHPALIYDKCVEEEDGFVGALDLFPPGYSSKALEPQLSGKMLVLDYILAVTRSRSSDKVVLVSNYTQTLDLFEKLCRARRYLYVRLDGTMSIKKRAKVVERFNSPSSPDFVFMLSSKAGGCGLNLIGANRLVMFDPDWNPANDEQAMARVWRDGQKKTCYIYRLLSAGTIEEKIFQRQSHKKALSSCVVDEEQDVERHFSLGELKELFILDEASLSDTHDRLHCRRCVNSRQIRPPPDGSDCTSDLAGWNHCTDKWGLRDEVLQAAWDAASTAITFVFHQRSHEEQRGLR

Cytochrome P450 2C19 = Cytochrome P450 2C19 (Homo sapiens, UniProt P33261); test: Cytochrome panel assay with activity outcomes. Panel member name: p450-cyp2c19 Compounds with AC50 equal or less than 10 uM are considered active; assay type: functional; details: read-out: AC50
Cytochrome P450 2C19, sequence (P33261 whole entry): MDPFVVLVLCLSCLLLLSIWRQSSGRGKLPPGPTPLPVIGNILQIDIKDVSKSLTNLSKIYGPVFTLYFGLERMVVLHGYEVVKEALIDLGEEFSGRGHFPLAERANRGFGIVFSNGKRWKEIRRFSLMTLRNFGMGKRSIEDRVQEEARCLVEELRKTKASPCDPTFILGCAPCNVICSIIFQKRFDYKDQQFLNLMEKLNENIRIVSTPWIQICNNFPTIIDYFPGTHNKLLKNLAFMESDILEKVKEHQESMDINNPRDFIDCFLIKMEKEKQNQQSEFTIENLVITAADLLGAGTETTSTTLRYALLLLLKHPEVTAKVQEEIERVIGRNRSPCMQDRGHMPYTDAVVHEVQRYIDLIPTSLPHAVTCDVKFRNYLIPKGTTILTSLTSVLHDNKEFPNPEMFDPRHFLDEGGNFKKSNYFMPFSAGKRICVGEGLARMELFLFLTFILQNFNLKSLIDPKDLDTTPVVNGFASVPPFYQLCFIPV

Cytochrome P450 3A4 = Cytochrome P450 3A4 (Homo sapiens, UniProt P08684);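 note: CYP3A4 tested as one member of a cytochrome P450 panel screen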
Cytochrome P450 3A4, sequence (P08684 whole entry, the tested form may be a part): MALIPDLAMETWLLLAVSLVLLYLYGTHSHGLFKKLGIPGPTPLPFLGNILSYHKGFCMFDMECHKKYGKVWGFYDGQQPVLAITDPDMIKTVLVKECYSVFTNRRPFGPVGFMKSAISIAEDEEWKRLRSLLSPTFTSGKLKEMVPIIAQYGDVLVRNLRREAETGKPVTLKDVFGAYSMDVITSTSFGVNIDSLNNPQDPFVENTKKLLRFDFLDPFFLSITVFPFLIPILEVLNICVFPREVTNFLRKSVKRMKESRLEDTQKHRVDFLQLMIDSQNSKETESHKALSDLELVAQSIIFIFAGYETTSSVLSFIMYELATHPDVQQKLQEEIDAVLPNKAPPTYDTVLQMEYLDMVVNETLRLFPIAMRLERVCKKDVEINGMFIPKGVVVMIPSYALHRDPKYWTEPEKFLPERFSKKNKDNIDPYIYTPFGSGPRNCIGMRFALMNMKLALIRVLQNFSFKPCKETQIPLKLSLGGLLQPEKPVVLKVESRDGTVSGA

[4] = biological target: Photoreceptor-specific nuclear receptor (Homo sapiens, UniProt Q9Y5X4); assay type: functional, cell-based;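 note: CHO-S cells with Gal4-NCOR and VP16-NR2E3 two-hybrid luciferase reporter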
Photoreceptor-specific nuclear receptor, sequence (Q9Y5X4 whole entry, the tested form may be a part): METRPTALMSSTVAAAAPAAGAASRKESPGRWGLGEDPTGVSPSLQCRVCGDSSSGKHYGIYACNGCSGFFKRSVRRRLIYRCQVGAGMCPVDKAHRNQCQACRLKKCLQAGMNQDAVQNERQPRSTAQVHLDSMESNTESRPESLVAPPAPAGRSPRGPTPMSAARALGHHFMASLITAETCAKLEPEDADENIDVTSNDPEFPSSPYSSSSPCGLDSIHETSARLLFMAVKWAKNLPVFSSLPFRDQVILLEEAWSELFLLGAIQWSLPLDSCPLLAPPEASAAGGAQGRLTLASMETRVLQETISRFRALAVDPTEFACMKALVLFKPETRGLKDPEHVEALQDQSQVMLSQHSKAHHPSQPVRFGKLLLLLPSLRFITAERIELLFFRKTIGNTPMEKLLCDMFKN

Cytochrome P450 2C9 = Cytochrome P450 2C9 (Homo sapiens, UniProt P11712)
Cytochrome P450 2C9, sequence (P11712 whole entry): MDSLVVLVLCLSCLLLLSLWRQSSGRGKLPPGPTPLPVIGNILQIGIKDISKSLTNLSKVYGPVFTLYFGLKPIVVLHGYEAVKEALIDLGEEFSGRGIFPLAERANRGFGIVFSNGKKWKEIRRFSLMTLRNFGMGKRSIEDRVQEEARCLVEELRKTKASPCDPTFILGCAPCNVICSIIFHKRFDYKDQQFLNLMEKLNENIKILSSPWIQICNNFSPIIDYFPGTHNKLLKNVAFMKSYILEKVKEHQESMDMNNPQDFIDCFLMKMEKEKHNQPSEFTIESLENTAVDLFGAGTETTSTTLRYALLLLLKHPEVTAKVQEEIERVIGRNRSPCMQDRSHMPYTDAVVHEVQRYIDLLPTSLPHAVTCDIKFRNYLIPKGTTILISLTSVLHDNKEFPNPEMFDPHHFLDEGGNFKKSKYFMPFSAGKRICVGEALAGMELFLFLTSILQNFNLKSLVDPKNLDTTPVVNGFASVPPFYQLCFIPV

SN12K1 = test: cells; assay type: functional; details: Homo sapiens
P388 = test: cells; assay type: functional; details: Mus musculus
P388/ADR = test: cells; assay type: functional; details: Mus musculus
[5] = biological target: T2, Sentrin-specific protease 1 (Homo sapiens, UniProt Q9P0U3); test: Dose response confirmation of small molecule inhibitors of the catalytic domain of the SUMO protease, SENP1 in a FRET assay.; assay type: functional; details: read-out: IC50_Mean
T2 sequence (Q9P0U3 whole entry, the tested form may be a part): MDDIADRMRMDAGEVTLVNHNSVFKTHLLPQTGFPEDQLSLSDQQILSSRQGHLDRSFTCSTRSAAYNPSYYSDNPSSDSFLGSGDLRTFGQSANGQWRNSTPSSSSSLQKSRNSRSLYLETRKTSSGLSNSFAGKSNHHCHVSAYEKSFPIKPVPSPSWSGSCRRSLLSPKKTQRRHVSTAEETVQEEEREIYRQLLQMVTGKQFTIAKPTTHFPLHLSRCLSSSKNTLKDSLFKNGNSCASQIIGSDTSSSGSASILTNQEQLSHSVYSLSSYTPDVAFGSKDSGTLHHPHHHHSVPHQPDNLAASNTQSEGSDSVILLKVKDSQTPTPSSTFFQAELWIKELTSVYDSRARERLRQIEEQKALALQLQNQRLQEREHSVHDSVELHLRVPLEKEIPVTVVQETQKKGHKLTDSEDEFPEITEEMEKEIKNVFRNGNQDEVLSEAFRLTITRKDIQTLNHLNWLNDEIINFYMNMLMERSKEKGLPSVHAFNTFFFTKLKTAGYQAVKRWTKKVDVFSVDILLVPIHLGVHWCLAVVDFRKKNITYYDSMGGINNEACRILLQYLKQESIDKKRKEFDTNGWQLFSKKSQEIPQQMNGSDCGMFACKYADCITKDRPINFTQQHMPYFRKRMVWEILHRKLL

[6] = biological target: T2, Sentrin-specific protease 1; test: potency of human SENP1 inhibitors, dose response, biochemical, kinetic FRET (AID 651697); assay type: functional; details: read-out: IC50_Mean

SMILES: O=c1cc(N2CCN(c3ccccc3)CC2)[nH]c(=O)n1C1CCCCC1
AC50 (Cytochrome P450 2C19): 3.16 µM (inconclusive)
AC50 (Cytochrome P450 3A4): 6.31 µM (inconclusive)
IC50 [4]: 0.511 µM (active)
AC50 (Cytochrome P450 2C9): 15.8 µM (inconclusive)

SMILES: Nc1ncnc2c1ncn2C1CCC(CO)O1 (configuration not stated)
GI50 (SN12K1): > 62.4 µM (inactive)
GI50 (P388): 98.6 µM (inactive)
GI50 (P388/ADR): 69.5 µM (inactive)

SMILES: CCn1c(/C=C/c2cc(Br)ccc2O)nc2ccccc2c1=O
IC50 [5]: 5.9 µM (active)
IC50 [6]: 12.5 µM (active)

Results, then the compound that gave them:

IC50 [1]: 5.39 µM (active)
IC50 [2]: 6.15 µM (active)
SMILES: O=[N+]([O-])/C(C(=C(Cl)Cl)N1CCN(Cc2ccccc2)CC1)=C1\NCCN1Cc1ccc(Cl)nc1

AC50 [3]: 100 µM (inactive)
SMILES: COc1cccc(-c2nc(N3CCN(Cc4ccccc4)CC3)c3ccccc3n2)c1O
